“And” between values parts separate entries of the source, which are not always exact repeats. Equal values may be shown once.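 Tested at 5 concentrations; 48 h exposure; 96-well plates; endpoints linearly interpolated, else capped at highest concentration. Here, GI50 denotes the concentration required for 50% inhibition of growth. Definition used: TGI = concentration required for complete inhibition of growth.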
What was measured:
Assay in all cases: DTP human tumour cell line panel, 48 h
NCI-H522 lung = system: NCI-H522 lung
SW-620 colon = system: SW-620 colon
DU-145 prostate = system: DU-145 prostate
HL-60(TB) leukemia = system: HL-60(TB) leukemia
SR leukemia = system: SR leukemia
CAKI-1 renal = system: CAKI-1 renal
COLO 205 colon = system: COLO 205 colon
RXF 393 renal = system: RXF 393 renal
HOP-92 NSCLC = system: HOP-92 NSCLC
KM12 colon = system: KM12 colon

Row | SMILES | GI50 (NCI-H522 lung) | TGI (NCI-H522 lung) | GI50 (SW-620 colon) | TGI (SW-620 colon) | GI50 (DU-145 prostate) | TGI (DU-145 prostate) | GI50 (HL-60(TB) leukemia) | TGI (HL-60(TB) leukemia) | GI50 (SR leukemia) | TGI (SR leukemia) | GI50 (CAKI-1 renal) | TGI (CAKI-1 renal) | GI50 (COLO 205 colon) | TGI (COLO 205 colon) | GI50 (RXF 393 renal) | TGI (RXF 393 renal) | GI50 (HOP-92 NSCLC) | TGI (HOP-92 NSCLC) | GI50 (KM12 colon) | TGI (KM12 colon)
1 | COc1cc(C2C(C#N)=C(N)OC3=C2C(=O)c2ccccc2C3=O)cc(OC)c1OC (stereo not drawn) | 0.26 µM | 16.8 µM | 0.413 µM | 25.9 µM | 0.474 µM | 15.9 µM | 2.28 µM | 6.77 µM | 0.337 µM | > 100 µM | 0.736 µM | 20.6 µM | 3.55 µM | 19.7 µM | 0.517 µM | 16.3 µM | 0.861 µM | 24.9 µM | 0.728 µM | > 100 µM
2 | Oc1ccccc1-n1c(-c2ccccc2)ccc1-c1ccccc1 | 2.74 µM | 12.8 µM | 5.49 µM | 20.2 µM | 7 µM | 19.7 µM | 5.2 µM | > 100 µM | 4.2 µM | 18 µM | 3.85 µM | 18.1 µM | 15.3 µM | 56.6 µM | 7.93 µM | 23 µM | 1.94 µM | 8.54 µM | 4.05 µM | 19.3 µM
3 | Cn1c(=O)c2[nH]c(COc3ccc(C(C)(C)C)cc3)nc2n(C)c1=O | 19.6 µM | 88 µM | 27 µM | > 100 µM | 17.7 µM | > 100 µM | 10.6 µM | 50.3 µM | 5.12 µM | 55.9 µM | 12 µM | > 100 µM | 50.3 µM | > 100 µM | 57 µM | > 100 µM | 0.428 µM | 30.6 µM | 15.9 µM | 44 µM
4 | O=C(/C=C\c1ccnc2ccccc12)c1ccc([N+](=O)[O-])cc1 | 15.2 µM | > 100 µM | 1.99 µM | 4.79 µM | 43.1 µM | > 100 µM | 5.89 µM | > 75.5 µM | 2.28 µM | 7.37 µM | 13.2 µM | > 100 µM | 23.1 µM | > 100 µM | 12 µM | > 66 µM | 3.99 µM | > 65.3 µM | 3 µM | 11.1 µM
5 | COc1ccc(C(Nc2ncccn2)c2cc3c(cc2O)OCO3)cc1 (stereo not drawn) | – | 31.7 µM | – | 28.3 µM | – | 44.4 µM | – | 46 µM | – | 32.4 µM | – | 46.9 µM | – | 70.6 µM | – | 36.3 µM | – | > 100 µM | – | 37.8 µM
6 | C=C(C)[C@H]1CC/C(C)=C/CCC(C)C(=O)CC/C(CO)=C\[C@@H]1O (stereo partly drawn) | 86.3 µM | > 100 µM | > 100 µM | > 100 µM | 60.8 µM | > 100 µM | 45.4 µM | > 100 µM | > 100 µM | > 100 µM | 65.9 µM | > 100 µM | > 100 µM | > 100 µM | > 100 µM | > 100 µM | 61.5 µM | > 100 µM | > 100 µM | > 100 µM
7 | C#Cc1ccc(NC(=O)c2ccc(/C=C/C(=O)c3nccn3C)cc2)cc1 | 0.518 µM | 1.37 µM | 0.382 µM | 1.01 µM | 0.597 µM | 1.57 µM | 0.507 µM | 1.37 µM | 0.115 µM | 3.33 µM | 0.51 µM | 1.34 µM | 0.592 µM | 1.36 µM | 0.408 µM | 0.796 µM | 0.53 µM | 2.23 µM | 0.421 µM | 0.99 µM
8 | CC(C)C(N)(C(=O)O)c1ccccc1 (stereo not drawn) | – | > 100 µM | – | > 100 µM | – | > 100 µM | – | > 100 µM | – | > 100 µM | – | > 100 µM | – | > 100 µM | – | > 100 µM | – | > 100 µM | – | > 100 µM
9 | Cc1nc(NC(=O)N2CCC[C@H]2C(N)=O)sc1-c1ccnc(C(C)(C)C(F)(F)F)c1 | 6.41 µM and 8.17 µM | 27.1 µM and > 10 µM | 4.82 µM and 7.37 µM | > 67.1 µM | 4.84 µM and 9.16 µM | > 73.1 µM | 1.04 µM and 0.289 µM | 37.3 µM and > 10 µM | 8.94 µM and > 10 µM | 44.1 µM and > 10 µM | 2.39 µM and 3.35 µM | 17.8 µM and > 10 µM | 2.75 µM and 1.38 µM | 19.6 µM and > 10 µM | 2.78 µM and 3.45 µM | 17.3 µM and > 10 µM | 0.0598 µM and 0.13 µM | 1.52 µM and 2.89 µM | 15.4 µM and > 10 µM | > 91.5 µM
10 | C[C@@H]1CC[C@@]2(OC1)O[C@H]1C[C@H]3[C@@H]4CC=C5C[C@@H](O[C@@H]6O[C@H](CO)[C@@H](O[C@@H]7O[C@@H](CO)[C@H](O)[C@H]7O)[C@H](O)[C@H]6O[C@@H]6O[C@@H](C)[C@H](O)[C@@H](O)[C@H]6O)CC[C@]5(C)[C@H]4CC[C@]3(C)[C@H]1[C@@H]2C | 1.67 µM | 3.23 µM | 0.577 µM | 1.93 µM | 1.17 µM | 2.4 µM | 1.44 µM | 2.81 µM | 0.565 µM | 2.39 µM | – | 2.05 µM | 0.966 µM | 2.17 µM | 0.388 µM | 1.58 µM | 0.806 µM | 2.1 µM | – | 2.15 µM

Reference: PubChem BioAssay (NCI)
